Measurements: ChEMBL document CHEMBL4811223, “Arenarosides A-G, Polyhydroxylated Oleanane-Type Saponins from Polycarpaea arenaria and their Cytotoxic and Antiangiogenic Activities” (J Nat Prod, 2021)

Legend:
[1] = Antiangiogenic activity in endothelial cells assessed as inhibition of tube formation incubated for 18 hrs by matrigel-based inverted microscopic analysis; format: functional; settings: Endothelial cell
[2] = system: HCT-116; test: Cytotoxicity against human HCT-116 cells assessed as cell growth inhibition after 48 hrs by MTT assay; format: functional, cell-based; settings: HCT-116, 48 h
[3] = system: A549; test: Cytotoxicity against human A549 cells assessed as cell growth inhibition after 48 hrs by MTT assay; format: functional, cell-based; settings: A549, 48 h
[4] = system: RT-112; test: Cytotoxicity against human RT-112 cells assessed as cell growth inhibition after 48 hrs by MTT assay; format: functional, cell-based; settings: RT-112, 48 h
[5] = system: PC-3; test: Cytotoxicity against human PC-3 cells assessed as cell growth inhibition after 48 hrs by MTT assay; format: functional, cell-based; settings: PC-3, 48 h

Structure (SMILES) | IC50 [1] | IC50 [2] | IC50 [3] | IC50 [4] | IC50 [5]
CC(=O)O[C@H]1[C@H](OC(C)=O)[C@]2(CO)[C@H](O)[C@H](O)[C@]3(C)C(=CC[C@@H]4[C@@]5(C)CC[C@H](O[C@@H]6OC[C@H](O[C@@H]7O[C@H](CO)[C@@H](O)[C@H](O)[C@H]7O[C@@H]7OC[C@@H](O)[C@H](O)[C@H]7O)[C@H](O)[C@H]6O[C@@H]6O[C@H](CO)[C@@H](O)[C@H](O)[C@H]6O)C(C)(C)[C@@H]5CC[C@]43C)[C@@H]2CC1(C)C | 3.2 µM | > 10 µM | 8.7 µM | 7.3 µM | > 10 µM
CC(=O)O[C@@H]1[C@H](O)[C@]2(C)C(=CC[C@@H]3[C@@]4(C)CC[C@H](O[C@@H]5OC[C@H](O[C@@H]6O[C@H](CO)[C@@H](O)[C@H](O)[C@H]6O[C@@H]6OC[C@@H](O)[C@H](O)[C@H]6O)[C@H](O)[C@H]5O[C@@H]5O[C@H](CO)[C@@H](O)[C@H](O)[C@H]5O)C(C)(C)[C@@H]4CC[C@]32C)[C@@H]2CC(C)(C)C[C@H](O)[C@]12CO | 5.1 µM | > 10 µM | > 10 µM | > 10 µM | > 10 µM
CC(=O)O[C@H]1CC(C)(C)C[C@H]2C3=CC[C@@H]4[C@@]5(C)CC[C@H](O[C@@H]6OC[C@H](O[C@@H]7O[C@H](CO)[C@@H](O)[C@H](O)[C@H]7O[C@@H]7OC[C@@H](O)[C@H](O)[C@H]7O)[C@H](O)[C@H]6O[C@@H]6O[C@H](CO)[C@@H](O)[C@H](O)[C@H]6O)C(C)(C)[C@@H]5CC[C@@]4(C)[C@]3(C)[C@@H](O)[C@@H](O)[C@@]12CO | 1.7 µM | 7.7 µM | 6.1 µM | 6.4 µM | 9.4 µM
CC(=O)O[C@@H]1C[C@]2(C)C(=CC[C@@H]3[C@@]4(C)CC[C@H](O[C@@H]5OC[C@H](O[C@@H]6O[C@H](CO)[C@@H](O)[C@H](O)[C@H]6O[C@@H]6OC[C@@H](O)[C@H](O)[C@H]6O)[C@H](O)[C@H]5O[C@@H]5O[C@H](CO)[C@@H](O)[C@H](O)[C@H]5O)C(C)(C)[C@@H]4CC[C@]32C)[C@@H]2CC(C)(C)C[C@H](O)[C@]12CO | 23.1 µM | > 10 µM | > 10 µM | > 10 µM | > 10 µM
CC(=O)OC[C@@]12[C@H](O)[C@H](O)[C@]3(C)C(=CC[C@@H]4[C@@]5(C)CC[C@H](O[C@@H]6OC[C@H](O[C@@H]7O[C@H](CO)[C@@H](O)[C@H](O)[C@H]7O[C@@H]7OC[C@@H](O)[C@H](O)[C@H]7O)[C@H](O)[C@H]6O[C@@H]6O[C@H](CO)[C@@H](O)[C@H](O)[C@H]6O)C(C)(C)[C@@H]5CC[C@]43C)[C@@H]1CC(C)(C)C[C@@H]2O | 35.8 µM | 9.8 µM | > 10 µM | 7.8 µM | > 10 µM
CC(=O)OC[C@@]12[C@H](O)C[C@]3(C)C(=CC[C@@H]4[C@@]5(C)CC[C@H](O[C@@H]6OC[C@H](O[C@@H]7O[C@H](CO)[C@@H](O)[C@H](O)[C@H]7O[C@@H]7OC[C@@H](O)[C@H](O)[C@H]7O)[C@H](O)[C@H]6O[C@@H]6O[C@H](CO)[C@@H](O)[C@H](O)[C@H]6O)C(C)(C)[C@@H]5CC[C@]43C)[C@@H]1CC(C)(C)[C@@H](OC(C)=O)[C@@H]2O | 5.2 µM | 6.8 µM | 9 µM | > 10 µM | 9.9 µM
CC(=O)OC[C@@]12[C@H](O)[C@H](O)[C@]3(C)C(=CC[C@@H]4[C@@]5(C)CC[C@H](O[C@@H]6OC[C@H](O[C@@H]7O[C@H](CO)[C@@H](O)[C@H](O)[C@H]7O[C@@H]7OC[C@@H](O)[C@H](O)[C@H]7O)[C@H](O)[C@H]6O[C@@H]6O[C@H](CO)[C@@H](O)[C@H](O)[C@H]6O)C(C)(C)[C@@H]5CC[C@]43C)[C@@H]1CC(C)(C)[C@@H](OC(C)=O)[C@@H]2O | 15.9 µM | > 10 µM | > 10 µM | > 10 µM | > 10 µM
CC1(C)C[C@H](O)[C@]2(CO)[C@H](O)[C@H](O)[C@]3(C)C(=CC[C@@H]4[C@@]5(C)CC[C@H](O[C@@H]6OC[C@H](O[C@@H]7O[C@H](CO)[C@@H](O)[C@H](O)[C@H]7O[C@@H]7OC[C@@H](O)[C@H](O)[C@H]7O)[C@H](O)[C@H]6O[C@@H]6O[C@H](CO)[C@@H](O)[C@H](O)[C@H]6O)C(C)(C)[C@@H]5CC[C@]43C)[C@@H]2C1 | 45.9 µM | > 10 µM | > 10 µM | > 10 µM | > 10 µM
CC(=O)O[C@H]1C(=O)[C@@]2(C)[C@H]([C@H](OC(=O)c3ccccc3)[C@]3(O)C[C@H](OC(=O)[C@H](O)[C@@H](NC(=O)c4ccccc4)c4ccccc4)C(C)=C1C3(C)C)[C@]1(OC(C)=O)CO[C@@H]1C[C@@H]2O [PACLITAXEL] |  |  | 0.7 µM | 0.07 µM | 0.04 µM
COc1ccc(/C=C\c2cc(OC)c(OC)c(OC)c2)cc1O [COMBRETASTATIN A4] | 0.37 µM |  |  |  | 
